Source: ChEMBL document CHEMBL1140156, “Polyoxygenated diterpenes from the sponge Phorbas sp” (2008)
In brackets after ≈: the same amount, converted by molar mass. Activity calls are given as the source filed them. The rule behind the calls is not given here.

Experiments:
[1] = Inhibition of isocitrate lyase
K562 = test: Cytotoxicity against human K562 cells; format: functional; conditions: for CC50: read-out: LC50 (the source's name)

Row | SMILES | Activity [1] | Activity (K562) | IC50 [1] | CC50 (K562)
1 | CC(C)=CCCC(C)/C=C/C=C(\C)[C@H]1CC[C@H](C(=O)O)CC1 (some centres undefined) | inactive | inactive |  | 
2 | CCCC(=O)O[C@@H]1[C@@H](OC(C)=O)[C@@H](O)C(C)=C[C@@H]2[C@H]3[C@@H](C(C)C)[C@@H](OC(=O)CC(C)C)[C@H](OC(=O)CCC)[C@@]3(C)[C@@H](OC(=O)CCC)C[C@]21C [GAGUNIN A] |  |  | 55 µg/mL (≈ 77.8 µM) | 18.1 µg/mL (≈ 25.6 µM)
3 | CCCC(=O)O[C@@H]1[C@H](C(C)C)[C@@H]2[C@H]3C=C(C)[C@H](O)[C@H](OC(C)=O)[C@@H](OC(=O)CCC)[C@]3(C)C[C@H](OC(=O)CCC)[C@]2(C)[C@H]1OC(=O)CCC [GAGUNIN B] |  |  | 55 µg/mL (≈ 79.4 µM) | 3.5 µg/mL (≈ 5.05 µM)
4 | CCCC(=O)O[C@@H]1[C@H](C(C)C)[C@@H]2[C@H]3C=C(C)[C@H](O)[C@H](OC(C)=O)[C@@H](OC(=O)CCC)[C@]3(C)C[C@H](OC(=O)CCC)[C@]2(C)[C@H]1OC(C)=O [GAGUNIN C] |  |  | 55 µg/mL (≈ 82.7 µM) | 0.37 µg/mL (≈ 0.557 µM)
5 | CCCC(=O)O[C@H]1C[C@]2(C)[C@H]([C@H]1C(C)C)[C@H]1C=C(C)[C@H](O)[C@H](OC(C)=O)[C@@H](OC(=O)CCC)[C@]1(C)C[C@@H]2OC(=O)CCC [GAGUNIN D] |  |  | 55 µg/mL (≈ 90.6 µM) | 0.19 µg/mL (≈ 0.313 µM)
6 | CCCC(=O)O[C@H]1C[C@]2(C)[C@H]([C@H]1C(C)C)[C@H]1C=C(C)[C@H](OC(C)=O)[C@H](O)[C@@H](OC(=O)CCC)[C@]1(C)C[C@@H]2OC(=O)CCC [GAGUNIN F] |  |  | 55 µg/mL (≈ 90.6 µM) | 0.25 µg/mL (≈ 0.412 µM)
7 | CCCC(=O)O[C@H]1C[C@]2(C)[C@H](C=C(C)[C@H](OC(C)=O)[C@H](O)[C@H]2OC(=O)CCC)[C@H]2[C@@H](C(C)C)[C@@H](OC(C)=O)C[C@]21C [GAGUNIN G] |  |  | 55 µg/mL (≈ 95 µM) | 0.45 µg/mL (≈ 0.778 µM)
8 | CCCC(=O)O[C@@H]1[C@H](C(C)C)[C@@H]2[C@H]3C=C(C)[C@H](O)[C@H](OC(C)=O)[C@@H](OC(=O)CCC)[C@]3(C)C[C@H](OC(=O)CC)[C@]2(C)[C@H]1OC(=O)CCC [GAGUNIN H] |  |  | 55 µg/mL (≈ 81 µM) | 10 µg/mL (≈ 14.7 µM)
9 | CCCC(=O)O[C@@H]1[C@H](C(C)C)[C@@H]2[C@H]3C=C(C)[C@H](O)[C@H](OC(C)=O)[C@@H](OC(=O)CCC)[C@]3(C)C[C@H](OC(C)=O)[C@]2(C)[C@H]1OC(=O)CCC [GAGUNIN I] |  |  | 55 µg/mL (≈ 82.7 µM) | 11.5 µg/mL (≈ 17.3 µM)
10 | CCCC(=O)O[C@@H]1[C@H](C(C)C)[C@@H]2[C@H]3C=C(C)[C@H](O)[C@H](OC(C)=O)[C@@H](OC(=O)CCC)[C@]3(C)C[C@H](OC(=O)CCC)[C@]2(C)[C@H]1OC(=O)CC [GAGUNIN J] |  |  | 55 µg/mL (≈ 81 µM) | 9.1 µg/mL (≈ 13.4 µM)
11 | CCCCC(=O)O[C@@H]1[C@H](C(C)C)[C@@H]2[C@H]3C=C(C)[C@H](O)[C@H](OC(C)=O)[C@@H](OC(=O)CCC)[C@]3(C)C[C@H](OC(=O)CCC)[C@]2(C)[C@H]1OC(=O)CCC [GAGUNIN K] |  |  | 55 µg/mL (≈ 77.8 µM) | 17.5 µg/mL (≈ 24.8 µM)
12 | CCCC(=O)O[C@H]1C[C@]2(C)[C@H]([C@H]1C(C)C)[C@H]1C=C(C)[C@H](O)[C@H](OC(C)=O)[C@@H](OC(=O)CCC)[C@]1(C)C[C@@H]2OC(C)=O [GAGUNIN L] |  |  | 55 µg/mL (≈ 95 µM) | 12.5 µg/mL (≈ 21.6 µM)
13 | CCCC(=O)O[C@H]1C[C@]2(C)[C@H]([C@H]1C(C)C)[C@H]1C=C(C)[C@H](O)[C@H](OC(C)=O)[C@@H](OC(=O)CCC)[C@]1(C)C[C@@H]2OC(=O)CC(C)C [GAGUNIN M] |  |  | 55 µg/mL (≈ 88.6 µM) | 0.71 µg/mL (≈ 1.14 µM)
14 | CCCC(=O)O[C@H]1C[C@]2(C)[C@H]([C@H]1C(C)C)[C@H]1C=C(C)[C@H](OC(C)=O)[C@H](O)[C@@H](OC(=O)CCC)[C@]1(C)C[C@@H]2OC(C)=O [GAGUNIN N] |  |  | 55 µg/mL (≈ 95 µM) | > 50 µg/mL
15 | CCCC(=O)O[C@@H]1[C@H](C(C)C)[C@@H]2[C@H]3C=C(C)[C@H](OC(C)=O)[C@H](O)[C@@H](OC(=O)CCC)[C@]3(C)C[C@H](OC(=O)CCC)[C@]2(C)[C@H]1OC(=O)CCC [GAGUNIN O] |  |  | 55 µg/mL (≈ 79.4 µM) | 11.1 µg/mL (≈ 16 µM)
16 | CCCC(=O)O[C@@H]1[C@H](C(C)C)[C@@H]2[C@H]3C=C(C)[C@H](O)[C@H](OC(C)=O)[C@@H](OC(C)=O)[C@]3(C)C[C@H](OC(=O)CCC)[C@]2(C)[C@H]1OC(=O)CCC [GAGUNIN P] |  |  | 55 µg/mL (≈ 82.7 µM) | 8.5 µg/mL (≈ 12.8 µM)
17 | CCCC(=O)O[C@@H]1[C@H](C(C)C)[C@@H]2[C@H]3C=C(C)[C@H](O)[C@H](OC(=O)CC)[C@@H](OC(=O)CCC)[C@]3(C)C[C@H](OC(=O)CCC)[C@]2(C)[C@H]1OC(=O)CCC [GAGUNIN Q] |  |  | 55 µg/mL (≈ 77.8 µM) | > 50 µg/mL
